Target: Human cGAS amino acids 155-522 (Homo sapiens (Human), UniProt Q8N884)
Test: cGAS biochemical activity assay (ATP remaining, Kinase-Glo Max luminescence)
Settings: human cGAS 155-522, ATP remaining (Kinase-Glo Max); read-out: cGAS IC50

Chain of Human cGAS amino acids 155-522 (Q8N884 157-522): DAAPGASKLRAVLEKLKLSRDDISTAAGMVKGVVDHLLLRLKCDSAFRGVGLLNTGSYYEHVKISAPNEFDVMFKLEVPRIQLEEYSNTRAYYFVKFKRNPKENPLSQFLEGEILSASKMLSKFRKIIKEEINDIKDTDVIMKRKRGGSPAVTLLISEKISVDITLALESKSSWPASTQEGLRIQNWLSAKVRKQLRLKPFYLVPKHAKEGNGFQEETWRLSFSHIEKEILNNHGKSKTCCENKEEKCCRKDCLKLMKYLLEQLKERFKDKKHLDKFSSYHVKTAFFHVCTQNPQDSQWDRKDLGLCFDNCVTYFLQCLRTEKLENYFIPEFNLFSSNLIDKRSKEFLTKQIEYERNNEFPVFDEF

SMILES | IC50 [µM]
COc1ccc(NC(=O)c2c(C)[nH]c3c(-c4ccccc4)c(C(F)(F)F)nn3c2=O)cc1 [Compound A1001, N-(4-methoxyphenyl)-5-methyl-7-oxo-3-phenyl-2-(trifluoromethyl)-4,7-dihydropyrazolo[1,5-a]pyrimidine-6-carboxamide] | 20 to 250
CO[C@@H]1CCCCC1c1nnc(-c2c(C)[nH]c3c(-c4ccccc4)c(C(F)(F)F)nn3c2=O)o1 (stereo partly shown) [D1046 Iso-2] | < 20
Cc1[nH]c2c(-c3ccccc3)c(C(F)(F)F)nn2c(=O)c1C(=O)Nc1ccc(Cl)cc1 [Compound A1016, N-(4-chlorophenyl)-5-methyl-7-oxo-3-phenyl-2-(trifluoromethyl)-4,7-dihydropyrazolo[1,5-a]pyrimidine-6-carboxamide] | 20 to 250
Cc1[nH]c2c(-c3ccccc3)c(C(F)(F)F)nn2c(=O)c1C(=O)Nc1ccccc1OC(F)(F)F [Compound A1049, 5-methyl-7-oxo-3-phenyl-N-(2-(trifluoromethoxy)phenyl)-2-(trifluoromethyl)-4,7-dihydropyrazolo[1,5-a]pyrimidine-6-carboxamide] | 20 to 250
Cc1[nH]c2c(-c3ccccc3)c(C(F)(F)F)nn2c(=O)c1C(=O)Nc1ccccc1N1CCCCC1 [Compound A1055, 5-methyl-7-oxo-3-phenyl-N-(2-(piperidin-1-yl)phenyl)-2-(trifluoromethyl)-4,7-dihydropyrazolo[1,5-a]pyrimidine-6-carboxamide] | 20 to 250
Cc1[nH]c2c(-c3ccccc3)c(C(F)(F)F)nn2c(=O)c1C(=O)NC1CCCCC1 [Compound A1010, N-cyclohexyl-5-methyl-7-oxo-3-phenyl-2-(trifluoromethyl)-4,7-dihydropyrazolo[1,5-a]pyrimidine-6-carboxamide] | 20 to 250
CC(=O)Nc1cccc(NC(=O)c2c(C)[nH]c3c(-c4ccccc4)c(C(F)(F)F)nn3c2=O)c1 [Compound A1039, N-(3-acetamidophenyl)-5-methyl-7-oxo-3-phenyl-2-(trifluoromethyl)-4,7-dihydropyrazolo[1,5-a]pyrimidine-6-carboxamide] | 20 to 250
Cc1[nH]c2c(-c3ccccc3)c(C(F)(F)F)nn2c(=O)c1C(=O)Nc1ccccc1C#N [Compound A1036, N-(2-cyanophenyl)-5-methyl-7-oxo-3-phenyl-2-(trifluoromethyl)-4,7-dihydropyrazolo[1,5-a]pyrimidine-6-carboxamide] | 20 to 250
CO[C@H]1CCCC1c1nnc(-c2c(C)[nH]c3c(-c4ccccc4)c(C(F)(F)F)nn3c2=O)o1 (stereo partly shown) [D1049 Iso-1] | < 20
Cc1[nH]c2c(-c3ccccc3)c(C(F)(F)F)nn2c(=O)c1C(N)=O [Compound A1140, 5-methyl-7-oxo-3-phenyl-2-(trifluoromethyl)-4,7-dihydropyrazolo[1,5-a]pyrimidine-6-carboxamide] | 20 to 250

Next, values leading:

IC50 [µM] | SMILES
20 to 250 | COc1cccc(-c2c(C(F)(F)F)nn3c(=O)c(-c4nc5c(OC)cccc5o4)c(C)[nH]c23)c1 [Compound C1120, 6-(4-methoxybenzo[d]oxazol-2-yl)-3-(3-methoxyphenyl)-5-methyl-2-(trifluoromethyl)pyrazolo[1,5-a]pyrimidin-7(4H)-one]
20 to 250 | Cc1[nH]c2c(-c3ccccc3)c(C(F)(F)F)nn2c(=O)c1CC(=O)Nc1ccccc1 [Compound B1005]
20 to 250 | Cc1[nH]c2c(-c3ccccc3)c(C(F)(F)F)nn2c(=O)c1-c1nnc(-c2cccnc2)o1 [Compound D1063, 5-methyl-3-phenyl-6-(5-(pyridin-3-yl)-1,3,4-oxadiazol-2-yl)-2-(trifluoromethyl)pyrazolo[1,5-a]pyrimidin-7(4H)-one]
> 250 | COc1ccc(-c2nnc(-c3c(C)[nH]c4c(-c5ccccc5)c(C(F)(F)F)nn4c3=O)o2)cc1 [Compound D1002, 6-(5-(4-methoxyphenyl)-1,3,4-oxadiazol-2-yl)-5-methyl-3-phenyl-2-(trifluoromethyl)pyrazolo[1,5-a]pyrimidin-7(4H)-one]
20 to 250 | Cc1[nH]c2c(-c3ccccc3)c(C(F)(F)F)nn2c(=O)c1-c1ccncc1 [Compound C1001, 5-methyl-3-phenyl-6-(pyridin-4-yl)-2-(trifluoromethyl)pyrazolo[1,5-a]pyrimidin-7(4H)-one]
< 20 | COCCNC(=O)c1[nH]c2c(-c3ccccc3)c(C(F)(F)F)nn2c(=O)c1-c1nc2c(OC)cccc2o1 [Compound C1142, 6-(4-methoxybenzo[d]oxazol-2-yl)-N-(2-methoxyethyl)-7-oxo-3-phenyl-2-(trifluoromethyl)-4,7-dihydropyrazolo[1,5-a]pyrimidine-5-carboxamide]
> 250 | COc1ccc(CN)c2oc(-c3c(C)[nH]c4c(-c5ccccc5)c(C(F)(F)F)nn4c3=O)nc12 [Compound C1191, 6-(7-(aminomethyl)-4-methoxybenzo[d]oxazol-2-yl)-5-methyl-3-phenyl-2-(trifluoromethyl)pyrazolo[1,5-a]pyrimidin-7(4H)-one]
20 to 250 | Cc1nc(-c2c(C)[nH]c3c(-c4ccccc4)c(C(F)(F)F)nn3c2=O)[nH]c1C [Compound C1021, 6-(4,5-dimethyl-1H-imidazol-2-yl)-5-methyl-3-phenyl-2-(trifluoromethyl)pyrazolo[1,5-a]pyrimidin-7(4H)-one]
> 250 | Cc1[nH]c2c(C3CC3)c(C(F)(F)F)nn2c(=O)c1Cc1ccccc1 [Compound C1264, 6-benzyl-3-cyclopropyl-5-methyl-2-(trifluoromethyl)pyrazolo[1,5-a]pyrimidin-7(4H)-one]
20 to 250 | Cc1[nH]c2c(-c3ccccc3)c(C(F)(F)F)nn2c(=O)c1-c1nnc(C2COCCN2C(=O)OCc2ccccc2)o1 (stereo not shown) [Compound D1039, benzyl 3-(5-(5-methyl-7-oxo-3-phenyl-2-(trifluoromethyl)-4,7-dihydropyrazolo[1,5-a]pyrimidin-6-yl)-1,3,4-oxadiazol-2-yl)morpholine-4-carboxylate]
20 to 250 | Cc1[nH]c2c(-c3ccccc3)c(C(F)(F)F)nn2c(=O)c1Cc1nnc(C2CCCCC2)o1 [Compound D1035, 6-((5-cyclohexyl-1,3,4-oxadiazol-2-yl)methyl)-5-methyl-3-phenyl-2-(trifluoromethyl)pyrazolo[1,5-a]pyrimidin-7(4H)-one]
20 to 250 | Cc1[nH]c2c(-c3ccccc3)c(C(F)(F)F)nn2c(=O)c1CC(=O)Nc1ccncc1 [Compound B1004, 2-(5-methyl-7-oxo-3-phenyl-2-(trifluoromethyl)-4,7-dihydropyrazolo[1,5-a]pyrimidin-6-yl)-N-(pyridin-4-yl)acetamide]
> 250 | Cc1[nH]c2c(-c3ccccc3)c(C(F)(F)F)nn2c(=O)c1-c1ccc2nccn2c1 [Compound C1006, 6-(imidazo[1,2-a]pyridin-6-yl)-5-methyl-3-phenyl-2-(trifluoromethyl)pyrazolo[1,5-a]pyrimidin-7(4H)-one]
< 20 | COc1cccc(NCCc2c(C)[nH]c3c(-c4ccccc4)c(C(F)(F)F)nn3c2=O)c1 [Compound B1015, 6-(2-((3-methoxyphenyl)amino)ethyl)-5-methyl-3-phenyl-2-(trifluoromethyl)pyrazolo[1,5-a]pyrimidin-7(4H)-one]
20 to 250 | Cc1[nH]c2c(-c3ccccc3)c(C(F)(F)F)nn2c(=O)c1Cc1nnc(C2CCCC2)o1 [Compound D1034, 6-((5-cyclopentyl-1,3,4-oxadiazol-2-yl)methyl)-5-methyl-3-phenyl-2-(trifluoromethyl)pyrazolo[1,5-a]pyrimidin-7(4H)-one]

From patent US10738056B2 (Aduro BioTech, Inc., priority 2017, dated 2020)
